In general, EC50 refers to the concentration needed to bring the measured effect to its halfway point.

Where a name gives a salt, the structure may show the parent alone. Read-outs that look alike come from different tables or passages of the source.

The results in this text go back to patent publication US20230002334A1, “TRPM8 MODULATORS” (Givaudan SA, priority 2019, published 2023).

For assay [1], the system named is panelists (mouth, mucosa). Nature of the assay: Sensory studies in aqueous solution (trained panel, swilling in the mouth). Format: in vivo, human. To be noted: 40 ppm in aqueous solution; for time of max cooling / Max. cooling: 20 mL swilled 60 seconds; for Max. cooling / Cooling after 1 h: averaged panel score on scale 0 to 10; for Cooling after 1 h: 1 h after swilling. Here is the method: The compounds as listed below in Table 2 were dissolved at a concenteration of 1 wt-% in propylene glycol. These solutions were then dispensed in appropriate quantities into deionized water containing 0.5 wt-% Poloxamer 407 (which is a hydrophilic non-ionic surfactant, e.g., commercially available from SigmaAldrich) and 0.25 wt-% Cremaphor® RH40 (obtained from BASF) as solubilizer, to obtain the desired final concentration of 40 ppm (parts per milion) of the respective compound.
A trained group of panelists evaluated the aqueous solutions containing test compound by swilling 20 mL of the solution in the mouth for 60 seconds, followed by spitting, without rinsing the mouth afterwards for the duration of the evaluation. Panelists evaluated and recorded the cooling performance as well as other sensorial and organoleptic attributes at different timepoints over a period of two hours. Cooling performance was rated on a scale from 0 to 10 with 0 being no effect and 10 being freezing. Scores were averaged for all panelists and the cooling intensity qualified as “N” for “none” (score of 0), “L” for “low” (score above 0, up to 1), “M” for “medium” (score above 1, up to 4), “S” for “strong” (score above 4, up to 8) and “E” for “extreme” (score above 8), which are provided in Table 2. […] All tasted samples developed cooling sensation starting during swilling (almost immediately upon contact with the mucosa) and before expectorating.

Assay [2] addresses T1, hTRPM8 (Homo sapiens, UniProt Q7Z2W7).
T1 construct: expressed in transfected cells
Nature of the assay: Assay on TRPM8 modulators: calcium imaging (Fluo-4, Flexstation) in HEK293 cell line stably expressing hTRPM8. Format: cell-based. Summed up:
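Calcium influx monitored by Fluo-4 (2.7 μM with […] probenecid, 1 h 37 °C loading) in HEK293 cells stably expressing hTRPM8, in HEPES buffer pH 7.4 with 2 mM CaCl2. Fluorescence read 15 s before and 105 s after adding serial compound dilutions. Maximal activation relative to solvent and 31.6 μM menthol; EC50 from sigmoidal fit.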

The mark [3] stands for this setting: HEK293 cells stably expressing hTRPM8, calcium influx, sigmoidal dose-response fit, read-out: EC50.

T1 sequence (Q7Z2W7 whole entry): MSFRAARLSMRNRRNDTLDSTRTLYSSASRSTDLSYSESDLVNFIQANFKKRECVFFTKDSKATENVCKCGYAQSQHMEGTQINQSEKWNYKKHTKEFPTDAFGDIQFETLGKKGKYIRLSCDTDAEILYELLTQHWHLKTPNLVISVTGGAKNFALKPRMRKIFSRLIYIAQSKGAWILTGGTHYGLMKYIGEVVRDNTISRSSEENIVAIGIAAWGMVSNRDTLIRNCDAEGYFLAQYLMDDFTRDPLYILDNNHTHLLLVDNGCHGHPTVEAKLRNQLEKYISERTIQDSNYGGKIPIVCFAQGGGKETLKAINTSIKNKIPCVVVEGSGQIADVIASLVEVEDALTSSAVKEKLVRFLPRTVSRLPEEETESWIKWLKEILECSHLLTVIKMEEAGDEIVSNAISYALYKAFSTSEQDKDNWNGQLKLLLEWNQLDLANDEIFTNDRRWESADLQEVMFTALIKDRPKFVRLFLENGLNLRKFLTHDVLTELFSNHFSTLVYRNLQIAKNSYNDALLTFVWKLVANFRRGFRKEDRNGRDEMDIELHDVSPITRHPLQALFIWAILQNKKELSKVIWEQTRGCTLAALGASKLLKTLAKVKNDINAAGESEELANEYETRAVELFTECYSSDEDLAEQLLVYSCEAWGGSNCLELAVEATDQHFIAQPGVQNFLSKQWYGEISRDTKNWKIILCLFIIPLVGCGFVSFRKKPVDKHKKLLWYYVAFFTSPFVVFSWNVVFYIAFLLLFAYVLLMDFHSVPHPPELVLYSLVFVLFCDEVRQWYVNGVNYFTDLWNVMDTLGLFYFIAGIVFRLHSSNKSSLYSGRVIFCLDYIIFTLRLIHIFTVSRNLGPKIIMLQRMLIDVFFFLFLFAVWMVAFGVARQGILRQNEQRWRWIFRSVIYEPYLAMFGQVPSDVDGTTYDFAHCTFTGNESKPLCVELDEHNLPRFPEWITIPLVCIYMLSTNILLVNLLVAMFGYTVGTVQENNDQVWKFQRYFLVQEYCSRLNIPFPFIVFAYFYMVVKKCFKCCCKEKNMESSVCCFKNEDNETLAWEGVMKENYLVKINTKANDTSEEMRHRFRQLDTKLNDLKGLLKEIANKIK

For the molecule `CCC[C@@H]1CC[C@@H]2[C@@H](C1)C(C)(C)ON2C(C)C` (racemic) [Compound 26, rac-(3aR,5R,7aR)-1-isopropyl-3,3-dimethyl-5-propyloctahydrobenzo[c]isoxazole], in assay [1], the “time of max cooling” value turned out to be 10 min; the Max. cooling result is listed as “S (“S” for “strong” (score above 4, up to 8))”; the “Cooling after 1 h” value is listed as “M (“M” for “medium” (score above 1, up to 4))”. Further, the half-maximal effective concentration (EC50) in assay [2] (setting [3]) lay within 0.3 to 1 µM.
As for `CC(C)=CC[C@H]1C[C@@H]2[C@@H]([C@@H](C)C1)N(C)OC2(C)C` (racemic) [Compound 50, rac-(3aR,5R,7S,7aR)-1,3,3,7-tetramethyl-5-(3-methylbut-2-en-1-yl)octahydrobenzo[c]isoxazole], in assay [1], the “time of max cooling” value was 10 min; the Max. cooling result is reported as “M (“M” for “medium” (score above 1, up to 4))”; the “Cooling after 1 h” value is “M (“M” for “medium” (score above 1, up to 4))”. Further, the EC50 in assay [2] is 0.05 to 0.3 µM.
As for `CC(C)N1OC(C)(C)[C@@H]2C[C@H](c3ccccc3)C[C@H](C)[C@H]21` (racemic) [Compound 64, rac-(3aR,5R,7S,7aR)-1-isopropyl-3,3,7-trimethyl-5-phenyloctahydrobenzo[c]isoxazole], in assay [1], the “time of max cooling” value was 10 min; the Max. cooling result is “M (“M” for “medium” (score above 1, up to 4))”; the “Cooling after 1 h” value was “M (“M” for “medium” (score above 1, up to 4))”. Besides, the concentration giving a half-maximal response (EC50) in assay [2] (setting [3]) was 0.05 to 0.3 µM.
Take `COc1ccccc1[C@H]1C[C@@H]2[C@@H]([C@@H](C)C1)N(C(C)C)OC2(C)C` (racemic) [Compound 66, rac-(3aR,5R,7S,7aR)-1-isopropyl-5-(2-methoxyphenyl)-3,3,7-trimethyloctahydrobenzo[c]isoxazole]: in assay [1], the “time of max cooling” value amounted to 20 min; the Max. cooling result was “M (“M” for “medium” (score above 1, up to 4))”; the “Cooling after 1 h” value was “M (“M” for “medium” (score above 1, up to 4))”. In addition, the EC50 in assay [2] (setting [3]) is below 0.05 µM.
Consider `COc1ccccc1[C@H]1C[C@@H]2[C@@H]([C@@H](C)C1)N(C)OC2(C)C` (racemic) [Compound 83, rac-(3aR,5R,7S,7aR)-5-(2-methoxyphenyl)-1,3,3,7-tetramethyloctahydrobenzo[c]isoxazole], for which, in assay [1], the “time of max cooling” value is 10 min; the Max. cooling entry is recorded as “S (“S” for “strong” (score above 4, up to 8))”; the “Cooling after 1 h” value is reported as “L (“L” for “low” (score above 0, up to 1))”. Besides, the EC50 in assay [2] (setting [3]) was below 0.05 µM.
For `C[C@H]1C[C@@](C)(c2cc(F)cc(F)c2)C[C@@H]2[C@@H]1N(C)OC2(C)C` (racemic) [Compound 85, rac-(3aR,5R,7S,7aR)-5-(3,5-difluorophenyl)-1,3,3,5,7-pentamethyloctahydrobenzo[c]isoxazole], in assay [1], the “time of max cooling” value came out at 10 min; the Max. cooling result is “M (“M” for “medium” (score above 1, up to 4))”; the “Cooling after 1 h” value is recorded as “M (“M” for “medium” (score above 1, up to 4))”. For the same molecule, the concentration giving a half-maximal response (EC50) in assay [2] (setting [3]) is below 0.05 µM.
For `CC[C@@H]1C[C@H](CC)[C@@H]2[C@@H](C1)C(C)(C)ON2C(C)C` (racemic) [Compound 111, rac-(3aR,5R,7S,7aR)-5,7-diethyl-1-isopropyl-3,3-dimethyloctahydrobenzo[c]isoxazole], in assay [1], the “time of max cooling” value stood at 10 min; the Max. cooling entry is on record as “M (“M” for “medium” (score above 1, up to 4))”; the “Cooling after 1 h” value was “L (“L” for “low” (score above 0, up to 1))”. For the same molecule, the EC50 in assay [2] (setting [3]) lay in the range of 0.3 to 1 µM.
For `CCN1OC(C)(C)C2CC(CC=C(C)C)CC(C)C21` (racemic) [Compound 120, rac-(3aS,5S,7S,7aS)-1-ethyl-3,3,7-trimethy)-5-(3-methylbut-2-en-1-yl)octahydrobenzo[c]isoxazole], in assay [1], the “time of max cooling” value was 10 min; the Max. cooling entry is reported as “M (“M” for “medium” (score above 1, up to 4))”; the “Cooling after 1 h” value is recorded as “L (“L” for “low” (score above 0, up to 1))”. Besides, the EC50 in assay [2] (setting [3]) was in the range of 0.3 to 1 µM.
For the molecule `C[C@H]1C[C@@](C)(c2cccc(C#N)c2)C[C@@H]2[C@@H]1N(C)OC2(C)C` (racemic) [Compound 124, rac-3-((3aR,5R,7S,7aR)-1,3,3,5,7-pentamethyloctahydrobenzo[c]isoxazol-5-yl)benzonitrile], in assay [1], the “time of max cooling” value was determined as 5 min; the Max. cooling entry is “S (“S” for “strong” (score above 4, up to 8))”; the “Cooling after 1 h” value was “M (“M” for “medium” (score above 1, up to 4))”. The EC50 in assay [2] (setting [3]) was below 0.05 µM.
As to `CC(C)=CCC1(C)CC(C)C2C(C1)C(C)(C)ON2C` (stereo not drawn) [Compound 1, 1,3,3,5,7-pentamethyl-5-(3-methylbut-2-en-1-yl)octahydrobenzo[c]isoxazole], in assay [1], the “time of max cooling” value is 20 min; the Max. cooling result is reported as “M (“M” for “medium” (score above 1, up to 4))”; the “Cooling after 1 h” value is recorded as “M (“M” for “medium” (score above 1, up to 4))”. The concentration giving a half-maximal response (EC50) in assay [2] (setting [3]) lay in the range of 0.3 to 1 µM.
In the case of `CC1CC(C)(c2cccnc2)CC2C1N(C)OC2(C)C` (stereo not drawn) [Compound 3, 1,3,3,5,7-pentamethyl-5-(pyridin-3-yl)octahydrobenzo[c]isoxazole], the EC50 in assay [2] (setting [3]) lay in the range of 1 to 35 µM.
As to `CC1CC(C)C2C(C1)C(C)(C)ON2C` (stereo not drawn) [Compound 4, 1,3,3,5,7-pentamethyloctahydrobenzo[c]isoxazole], in assay [1], the “time of max cooling” value worked out at 3 min; the Max. cooling entry is “M (“M” for “medium” (score above 1, up to 4))”; the “Cooling after 1 h” value was “L (“L” for “low” (score above 0, up to 1))”. The half-maximal effective concentration (EC50) in assay [2] (setting [3]) is 1 to 35 µM.
For the molecule `CC1CC(C)C2C(C1)C(C)(C)ON2C` (stereo not drawn) [Compound 5, 1,3,3,5,7-pentamethyloctahydrobenzo[c]isoxazole hydrochloride], the concentration for a half-maximal effect (EC50) in assay [2] (setting [3]) lay within 1 to 35 µM.
On the same count and under the same terms, to `CC1CCC2C(C1)N(C)OC2(C)C` (stereo not drawn) [Compound 6, 1,3,3,6-tetramethyloctahydrobenzo[c]isoxazole] belongs 1 to 35 µM; to `CC1CC(C)C2C(C1)C1(CCCC1)ON2C` (stereo not drawn) [Compound 8, 1,5,7-trimethylhexahydro-1H-spiro[benzo[c]isoxazole-3,1′-cyclopentane]], 1 to 35 µM; to `CC(C)=CCC1(C)CC(C)C2C(C1)C(C)(C)ON2C(C)C` (stereo not drawn) [Compound 10, 1-isopropyl-3,3,5,7-tetramethyl-5-(3-methylbut-2-en-1-yl)octahydrobenzo[c]isoxazole], 0.3 to 1 µM.
Same read-out and setting: to `CC1CC(C)C2C(C1)C(C)(C)ON2C(C)C` (stereo not drawn) [Compound 11, 1-isopropyl-3,3,5,7-tetramethyloctahydrobenzo[c]isoxazol-1-ium chloride] belongs 0.3 to 1 µM; to `CC1CC(C)C2C(C1)C1(CCCC1)ON2C(C)C` (stereo not drawn) [Compound 13, 1-isopropyl-5,7-dimethylhexahydro-1H-spiro[benzo[c]isoxazole-3,1-cyclopentane]], 1 to 35 µM.
`CC1CC(C)(c2ccccc2C#N)CC2C1N(C)OC2(C)C` (stereo not drawn) [Compound 14, 2-(1,3,3,5,7-pentamethyloctahydrobenzo[c]isoxazol-5-yl)benzonitrile]: the EC50 in assay [2] (setting [3]) lay in the range of 0.05 to 0.3 µM.
On to `Cc1c(C#N)cccc1C1(C)CC(C)C2C(C1)C(C)(C)ON2C` (stereo not drawn) [Compound 15, 2-methyl-3-(1,3,3,5,7-pentamethyloctahydrobenzo[c]isoxazol-5-yl)benzonitrile], for which, in assay [2] (setting [3]), the 50% effective concentration (EC50) was 0.3 to 1 µM.
Still for that read-out and setting: to `COc1ccc(C2(C)CC(C)C3C(C2)C(C)(C)ON3C)c(OC)c1` (stereo not drawn) [Compound 16, 5-(2,4-dimethoxyphenyl)-1,3,3,5,7-pentamethyloctahydrobenzo[c]isoxazole] belongs 0.3 to 1 µM; to `COc1ccc(OC)c(C2(C)CC(C)C3C(C2)C(C)(C)ON3C)c1` (stereo not drawn) [Compound 17, 5-(2,5-dimethoxyphenyl)-1,3,3,5,7-pentamethyloctahydrobenzo[c]isoxazole], 0.05 to 0.3 µM.
On to `COc1cccc(C2(C)CC(C)C3C(C2)C(C)(C)ON3C)n1` (stereo not drawn) [Compound 18, 5-(6-methoxypyridin-2-yl)-1,3,3,5,7-pentamethyloctahydrobenzo[c]isoxazole], for which the concentration giving a half-maximal response (EC50) in assay [2] (setting [3]) lay within 0.3 to 1 µM.
On the same count and under the same terms, to `CCC1CC(CC)C2C(C1)C(C)(C)ON2C` (stereo not drawn) [Compound 19, 5,7-diethyl-1,3,3-trimethyloctahydrobenzo[c]isoxazole] belongs 1 to 35 µM.
On the same count and under the same terms, the same measure for `CCC1(C)CC(C)C2C(C1)C(C)(C)ON2C` (stereo not drawn) [Compound 20, 5-ethyl-1,3,3,5,7-pentamethyloctahydrobenzo[c]isoxazole]: 1 to 35 µM; for `CC(C)CCC1CC(C)C2C(C1)C(C)(C)OC(=O)N2C` (stereo not drawn) [Compound 21, 6-isopentyl-1,4,4,8-tetramethyloctahydro-2H-benzo[d][1,3]oxazin-2-one]: 1 to 35 µM; for `CC(C)CCC1CC(C)C2C(C1)C(C)(C)OCN2C` (stereo not drawn) [Compound 22, 6-isopentyl-1,4,4,8-tetramethyloctahydro-2H-benzo[d][1,3]oxazine]: 1 to 35 µM.
